What was measured:
Type in all cases: in vivo
[1] = tested on: rats subjected to burn injury; assay: Organ injury and dysfunction induced by burn injury in the rat; conditions: 3 mg/kg i.v. 30 min prior to and 30 min after burn injury, 6 h after burn
Experimental: Twenty-two male Wistar rats (Harlan, Udine, Italy) weighing 300 to 350 g were anaesthetised with sodium pentobarbital (Eutasil™, 60 mg/kg i.p.; Sanofi Veterinária, Algés, Portugal), which was supplemented as required. Anaesthetised rats were shaved (dorsum and abdomen) and placed onto a thermostatically controlled heating mat (Harvard Apparatus Ltd, Kent, U.K.) and body temperature maintained at 37±1° C. by means of a rectal probe attached to a homeothermic blanket. A tracheotomy was performed to maintain airway patency and to facilitate spontaneous respiration. Thirty minutes prior to burn injury, rats were treated with vehicle or drug, as described in section 3.2. To induce burn injury, a 60% third degree skin burn was induced by immersing dorsal shaved skin in 99° C. water for 10 s using a synthetic foam template. The rats were then dried and placed over the heating mat. Rats were sacrificed at 6 hours after burn injury by overdose of the anaesthetic and serum samples obtained for analysis of organ injury and dysfunction. Rats were randomly allocated into the following groups: • (i) Sham (n=4) • (ii) Burn+10% DMSO (n=10) • (iii) Burn+Artesunate (n=9) Sham-operated rats underwent identical surgical procedures but without burn injury (immersed in room temperature water). Animals received either 10% DMSO (1 ml/kg i.v.) or artesunate (3 mg/kg i.v.) 30 min prior to burn injury and 30 min after burn injury Each data point represents measurements obtained from up to 10 separate animals. Data was assessed using Mann-Whitney U test.

[2] = tested on: rats subjected to unilateral renal ischaemia/reperfusion; assay: Late administration in a recovery rat model of unilateral renal ischaemia/reperfusion injury; conditions: 0.3 mg/kg i.v. 24 h into reperfusion, measured at 48 h reperfusion, mean±SEM, P<0.05
Experimental: Thirty-one male Wistar rats (240-270 g, Charles River, Margate, U.K.) were used in this study. Rats were anaesthetised with a ketamine (100 mg/ml) and xylazine (20 mg/ml) mixture (2:1; 1.5 ml/kg, i.p.) and anaesthesia was maintained by supplementary injections (200 μg/kg i.p.) of ketamine/xylazine. Buprenorphine was administered at a dose of 0.1 mg/kg s.c. (0.5 ml/kg). Rats were then, placed onto a thermostatically controlled heating mat (Harvard Apparatus Ltd., Kent, U.K.) set at 37° C. A midline laparotomy was then performed. The anatomical right kidney was removed following permanent ligation of the renal artery and vein. The left renal pedicle (consisting of the renal artery, vein and nerve) was isolated and clamped using a non-traumatic microvascular clamp at time 0 for 30 min. Body temperature was maintained at 35±1° C. during ischaemia by means of measuring rectal temperature with a thermometer. After 30 min of unilateral renal ischaemia, the clamp was removed to allow reperfusion for 48 h. […]
Following the reperfusion period, ˜3.5 ml of blood was taken from the right ventricle of the heart via cardiac puncture into non-heparinised 5 ml syringes and immediately decanted into 1.3 ml serum gel tubes (Sarstedt, Germany). […] All biochemical markers in serum and urine were measured in a blinded fashion by a commercial veterinary testing laboratory (IDEXX Ltd, West Sussex, UK). […] Creatinine clearance is used as an indicator of glomerular dysfunction and is calculated as follows
Fractional excretion of sodium is used as an indicator of tubular dysfunction and is calculated as follows: […]
All data in the text and figures are presented as mean±SEM of n observations, where n represents the number of animals studied. All statistical analysis was calculated using GraphPad Prism 6 (GraphPad Software, San Diego, Calif., USA). Biochemical data was analysed by one-way ANOVA for data representing more than two groups, followed by a Dunnett's post hoc test for comparison of sham/treated groups with the control vehicle. […]

[3] = tested on: rats subjected to haemorrhagic shock; assay: Organ injury and dysfunction induced by trauma haemorrhage (haemorrhagic shock) in the rat; conditions: for rise in serum creatinine / rise in serum urea: 4 h after resuscitation; for rise in serum creatinine / rise in serum urea / rise in serum ALT / rise in serum AST / rise in serum creatinine kinase: vs HS-rats; for decline in MAP caused by haemorrhage during the resuscitation phase: vs HS Control
Experimental: Thirty-five male Wistar rats (271±5 g) were anaesthetised with sodium thiopentone (120 mg/kg i.p., LINK Pharmaceuticals Ltd., West Sussex, UK) and anaesthesia was maintained by supplementary injections (˜10 mg/kg i.v.) of sodium thiopentone as and when required. The animals were placed onto a thermostatically controlled heating mat (Harvard Apparatus Ltd., Kent, UK) and body temperature was maintained at 37±1° C. by means of a rectal probe attached to a homeothermic blanket. A tracheotomy was performed by inserting into the lumen of the trachea a small length of polyethylene tubing [Internal Diameter (ID) 1.67 mm, Portex, Kent, UK] to maintain airway patency and facilitate spontaneous respiration. […] The right carotid artery was cannulated (ID 0.58 mm, Portex) to facilitate the withdrawal of blood using a heparinised syringe. The right jugular vein was cannulated (ID 0.40 mm, Portex) for the administration of Ringer's Lactate (RL), shed blood, test compounds and/or vehicle. The bladder was also cannulated (ID 0.76 mm, Portex) for the collection of urine. Upon completion of the surgical procedure, cardiovascular parameters were allowed to stabilise for a period of 15 min.
After the stabilisation period, blood was withdrawn via the cannula inserted in the right carotid artery in order to achieve a fall in MAP to 35±5 mmHg within 10 min. From this point onwards, MAP was maintained at 35±5 mmHg for a period of 90 min either by further withdrawal of blood during the compensation phase (MAP rises following blood withdrawal due to sympathetic response) or administration of Ringer's Lactate i.v. during the decompensation phase (animals are unable to increase and maintain high MAP). […] At 90 min after initiation of haemorrhage, resuscitation was performed with 20 ml/kg Ringer's Lactate i.v. over a period of 10 min and then half the shed blood mixed with 100 u/ml heparinised saline i.v. over a period of 50 min. At the end of 1 h resuscitation, an i.v. infusion of Ringer's Lactate (1.5 ml/kg/h) was started as fluid replacement and maintained for a further 3 h.
Four hours after the onset of resuscitation, 1.2 ml blood was collected from the right carotid artery and decanted into serum gel tubes (Sarstedt, Numbrecht, Germany), after which the heart was removed to terminate the experiment. The samples were centrifuged (9900 rpm for 3 min) to separate serum from which urea, creatinine, aspartate aminotransferase (AST), alanine aminotransferase (ALT) and creatinine kinase (CK) were measured within 24 hours (Idexx Laboratories Ltd., West Yorkshire, UK). Urine collected during the last 3 h of the experiment was analysed for creatinine levels in order to estimate creatinine clearance as an indicator of glomerular dysfunction and was calculated as follows:
[formula] 1.4 Experimental Design
Rats were randomly allocated into the following groups: • (i) Sham (n=4) • (ii) HS Control (n=10) • (iii) HS+Artesunate 1 mg/kg (n=6) • (iv) HS+Artesunate 3 mg/kg (n=7) • (v) HS+Artesunate 10 mg/kg (n=8)
Sham-operated rats underwent identical surgical procedures but without haemorrhage or resuscitation. Animals received either 10% DMSO (1 ml/kg i.v.) or artesunate (1, 3 or 10 mg/kg i.v.) on resuscitation.
All values described in the text and figures are expressed as mean±standard error of the mean (SEM) for n observations. Each data point represents biochemical measurements obtained from up to 10 separate animals. Statistical analysis was carried out using GraphPad Prism 5.03 (GraphPad Software, San Diego, Calif., USA). Data without repeated measurements was assessed by one-way ANOVA followed by Dunnett's post hoc test. Data with repeated measurements was assessed by two-way ANOVA followed by Bonferroni's post hoc test. A P value of less than 0.05 was considered to be significant.

[4] = 1 mg/kg i.v. on resuscitation, P>0.05
[5] = 3 mg/kg i.v. on resuscitation, P<0.005
[6] = 3 mg/kg i.v. on resuscitation, P<0.05
[7] = 10 mg/kg i.v. on resuscitation, P<0.005
[8] = 10 mg/kg i.v. on resuscitation, P<0.05

Compound: C[C@H]1[C@H](OC(=O)CCC(=O)O)O[C@@H]2O[C@@]3(C)CC[C@H]4[C@H](C)CC[C@@H]1[C@@]24OO3 [artesunate]
- rise in serum ALT ([1]; P>0.05): no significant effect
- rise in serum AST ([1]; P>0.05): no significant effect
- rise in serum creatinine ([1]; vs burn + vehicle, P<0.05): significantly attenuated
- rise in serum urea ([1]; vs burn + vehicle, P<0.05): significantly attenuated
- fractional excretion of sodium ([2]; IRI+Vehicle 4.45±0.65): 1.90±0.17%
- serum urea ([2]; IRI+Vehicle 34.13±2.23): 21.63 ± 1.51 mmol/L
- serum creatinine ([2]; IRI+Vehicle 205.90±22.23): 115.4 ± 9.72 µmol/L
- rise in serum creatinine [3, 4]: no significant effect
- rise in serum urea [3, 4]: no significant effect
- decline in MAP caused by haemorrhage during the resuscitation phase [3, 4]: failed to attenuate
- rise in serum ALT [3, 4]: no significant effect
- rise in serum AST [3, 4]: no significant effect
- rise in serum creatinine kinase [3, 4]: no significant effect
- rise in serum creatinine [3, 5]: significantly attenuated
- rise in serum urea [3, 6]: significantly attenuated
- decline in MAP caused by haemorrhage during the resuscitation phase ([3]; 3 mg/kg i.v. on resuscitation, P>0.05): failed to attenuate
- rise in serum ALT [3, 5]: significantly attenuated
- rise in serum AST [3, 6]: significantly attenuated
- rise in serum creatinine kinase [3, 6]: significantly attenuated
- rise in serum creatinine [3, 7]: significantly attenuated
- decline in MAP caused by haemorrhage during the resuscitation phase ([3]; 10 mg/kg i.v. on resuscitation, P>0.05): failed to attenuate
- rise in serum ALT [3, 7]: significantly attenuated
- rise in serum AST [3, 8]: significantly attenuated
- rise in serum creatinine kinase [3, 8]: significantly attenuated
